Where two headings read alike, the source gives them in different places.
Columns and labels:
[1] = test system: IL-4 stimulated expression of CD23 in human Ramos B cells (JAK-1 and JAK-3); test: Assay for Ramos B-Cell Line Stimulated with IL-4 (CD23 upregulation, FACS); assay type: cell-based; details: read-out: IC50, Example 41
Procedure, shortened: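 Read-out: anti-CD23-PE flow cytometry on Ramos B cells, giving IC50. Cells (5×10^4 per point, RPMI + 5% serum) get compound or DMSO for 1 h at 37 °C, then IL-4 50 units/mL final for 20-24 h.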

Primary human T-cells = test: Primary Human T-Cell Proliferation Assay Stimulated with IL-2 (CellTiter-Glo); assay type: cell-based; details: read-out: IC50, Example 42
Procedure, shortened: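 IC50 derived from CellTiter-Glo ATP signal after 72 hours of IL-2-driven proliferation at 37° C. Cells: primary human T-cells from blood, stimulated beforehand 3-4 days on anti-CD3/anti-CD28 with IL-2, then rested from IL-2 before compound exposure in duplicate; IL-2-free wells served as unstimulated control.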

[2] = Ramos B-cell line stimulated with IL-4, CD23 expression by FACS
[3] = primary human T-cell proliferation stimulated with IL-2
[4] = Ramos B cells stimulated with IL-4, CD23 expression by FACS
[5] = primary human T-cells stimulated with IL-2, proliferation

Row | Structure (SMILES) | IC50 [1, 2] [nM] | IC50 (Primary human T-cells; [3]) [nM] | IC50 [1, 4] [nM] | IC50 (Primary human T-cells; [5]) [nM]
1 | CC(Oc1ccc(Nc2nc(Nc3cccc(S(N)(=O)=O)c3)ncc2F)cc1)C(N)=O (racemic) [Compound I-117, Racemic N4-[4-(1-Aminocarbonyl)ethoxy]phenyl-N2-(3-aminosulfonyl)phenyl-5-fluoro-2,4-pyrimidinediamine] | 353 | 301 |  | 
2 | Cc1cc(Nc2nc(Nc3ccc(S(N)(=O)=O)cc3)ncc2F)ccc1OC(C)C(N)=O (racemic) [Compound I-119, Racemic N4-[4-(1-Aminocarbonyl)ethoxy-3-methyl]phenyl-N2-(4-aminosulfonyl)phenyl-5-fluoro-2,4-pyrimidinediamine] | 211 | 2440 |  | 
3 | Cc1cc(Nc2nc(Nc3cccc(S(N)(=O)=O)c3)ncc2F)ccc1OC(C)C(N)=O (racemic) [Compound I-120, Racemic N4-[4-(1-Aminocarbonyl)ethoxy-3-methyl]phenyl-N2-(3-aminosulfonyl)phenyl-5-fluoro-2,4-pyrimidinediamine] | 201 | 280 |  | 
4 | Cc1cc(Nc2nc(Nc3ccc(C)c(S(N)(=O)=O)c3)ncc2F)ccc1OC(C)C(N)=O (racemic) [Compound I-121, Racemic N4-[4-(1-Aminocarbonyl)ethoxy-3-methyl]phenyl-N2-(3-aminosulfonyl-4-methyl)phenyl-5-fluoro-2,4-pyrimidinediamine] | 184 | 634 |  | 
5 | Cc1cc(Nc2nc(Nc3ccc(S(N)(=O)=O)cc3)ncc2F)cc(C)c1OC(C)C(N)=O (racemic) [Compound I-122, Racemic N4-[4-(1-Aminocarbonyl)ethoxy-3,5-dimethyl]phenyl-N2-(4-aminosulfonyl)phenyl-5-fluoro-2,4-pyrimidinediamine] | 292 | 3500 |  | 
6 | Cc1cc(Nc2nc(Nc3cccc(S(N)(=O)=O)c3)ncc2F)cc(C)c1OC(C)C(N)=O (racemic) [Compound I-123, Racemic N4-[4-(1-Aminocarbonyl)ethoxy-3,5-dimethyl]phenyl-N2-(3-aminosulfonyl)phenyl-5-fluoro-2,4-pyrimidinediamine] | 159 | 225 |  | 
7 | Cc1ccc(Nc2ncc(F)c(Nc3cc(C)c(OC(C)C(N)=O)c(C)c3)n2)cc1S(N)(=O)=O (racemic) [Compound I-124, Racemic N4-[4-(1-Aminocarbonyl)ethoxy-3,5-dimethyl]phenyl-N2-(3-aminosulfonyl-4-methyl)phenyl-5-fluoro-2,4-pyrimidinediamine] | 102 | 342 |  | 
8 | Cc1ccc(Nc2ncc(F)c(Nc3ccc4c(c3)CC(C(=O)N(C)C)O4)n2)cc1S(N)(=O)=O (racemic) [VII-26, Racemic N2-(3-Aminosulfonyl-4-methylphenyl)-N4-[2-(N,N-dimethylaminocarbonyl)-2,3-dihydrobenzofuran-5-yl]-5-fluoro-2,4-pyrimidinediamine] |  |  | 545 | 1200
9 | CN(C)C(=O)C1Cc2cc(Nc3nc(Nc4ccc(Cl)c(S(N)(=O)=O)c4)ncc3F)ccc2O1 (racemic) [VII-27, Racemic N2-(3-Aminosulfonyl-4-chlorophenyl)-N4-[2-(N,N-dimethylaminocarbonyl)-2,3-dihydrobenzofuran-5-yl]-5-fluoro-2,4-pyrimidinediamine] |  |  | 413 | 2050
10 | CC(C)c1ccc(Nc2ncc(F)c(Nc3ccc(OCC#N)cc3)n2)cc1S(N)(=O)=O [Compound I-8, N2-(3-Aminosulfonyl-4-iso-propylphenyl)-N4-(4-cyanomethyleneoxyphenyl)-5-fluoro-2,4-pyrimidinediamine] | 58.7 | 174 |  | 
11 | CN1CCN(c2ccc(Nc3ncc(F)c(Nc4ccc(OCC#N)cc4)n3)cc2S(N)(=O)=O)CC1 [Compound I-9, N2-[3-Aminosulfonyl-4-(4-methylpiperazin-1-yl)phenyl]-5-fluoro-N4-(4-cyanomethyleneoxyphenyl)-2,4-pyrimidinediamine] | 233 | 485 |  | 
12 | CN1CCN(c2ccc(Nc3ncc(F)c(Nc4ccc(OCC#N)c(F)c4)n3)cc2S(N)(=O)=O)CC1 [Compound I-10, N2-[3-Aminosulfonyl-4-(4-methylpiperazine-1-yl)phenyl]-5-fluoro-N4-(4-cyanomethyleneoxy-3-fluorophenyl)-2,4-pyrimidinediamine] | 25.5 | 95.7 |  | 
13 | Cc1ccc(Nc2ncc(F)c(Nc3ccc(OCC#N)c(F)c3)n2)cc1S(N)(=O)=O [Compound I-11, N2-(3-Aminosulfonyl-4-methylphenyl)-5-fluoro-N4-(4-cyanomethyleneoxy-3-fluorophenyl)-2,4-pyrimidinediamine] | 23.3 | 39.3 |  | 
14 | N#CCOc1ccc(Nc2nc(Nc3cccc(S(N)(=O)=O)c3)ncc2F)cc1F [Compound I-12, N2-(3-Aminosulfonylphenyl)-5-fluoro-N4-(4-cyanomethyleneoxy-3-fluorophenyl)-2,4-pyrimidinediamine] | 36.9 | 59.7 |  | 
15 | N#CCOc1ccc(Nc2nc(Nc3cccc(S(N)(=O)=O)c3)ncc2Br)cc1 [Compound I-13, N2-(3-Aminosulfonylphenyl)-5-bromo-N4-(4-cyanomethyleneoxyphenyl)-2,4-pyrimidinediamine] | 6.27 | 5.05 |  | 
16 | Cc1ccc(Nc2ncc(Br)c(Nc3ccc(OCC#N)cc3)n2)cc1S(N)(=O)=O [Compound I-14, N2-(3-Aminosulfonyl-4-methylphenyl)-5-bromo-N4-(4-cyanomethyleneoxyphenyl)-2,4-pyrimidinediamine] | 13 | 11.5 |  | 
17 | C[Si](C)(C)C#Cc1cnc(Nc2cccc(S(N)(=O)=O)c2)nc1Nc1ccc(OCC#N)cc1 [Compound I-15, N2-(3-Aminosulfonylphenyl)-N4-(4-cyanomethyleneoxyphenyl)-5-trimethylsilylacetylene-2,4-pyrimidinediamine] | 309 | 1180 |  | 
18 | Cc1ccc(Nc2ncc(F)c(Nc3cc(C)c(OCC(N)=O)c(C)c3)n2)cc1S(N)(=O)=O [Compound I-96, N4-(4-Aminocarbonylmethoxy-3,5-dimethyl)phenyl-N2-(3-aminosulfonyl-4-methyl)phenyl-5-fluoro-2,4-pyrimidinediamine] | 132 | 772 |  | 
19 | Cc1cc(Nc2nc(Nc3ccc(S(N)(=O)=O)cc3)ncc2F)ccc1OCC(N)=O [Compound I-113, N4-(4-Aminocarbonylmethoxy-3-methyl)phenyl-N2-(4-aminosulfonyl)phenyl-5-fluoro-2,4-pyrimidinediamine] | 165 | 1690 |  | 
20 | Cc1ccc(Nc2ncc(F)c(Nc3ccc(OC(C)C(N)=O)cc3)n2)cc1S(N)(=O)=O (centres unmarked) [Compound I-118, N4-[4-(1-Aminocarbonyl)ethoxy]phenyl-N2-(3-aminosulfonyl-4-methyl)phenyl-5-fluoro-2,4-pyrimidinediamine] | 292 | 557 |  | 
21 | CC(C)(Oc1ccc(Nc2nc(Nc3cccc(S(N)(=O)=O)c3)ncc2F)cc1)C(N)=O [Compound I-126, N4-[4-(1-Aminocarbonyl-1-methyl)ethoxy]phenyl-N2-(3-aminosulfonyl)phenyl-5-fluoro-2,4-pyrimidinediamine] | 355 | 610 |  | 
22 | Cc1ccc(Nc2ncc(F)c(Nc3ccc(OC(C)(C)C(N)=O)cc3)n2)cc1S(N)(=O)=O [Compound I-127, N4-[4-(1-Aminocarbonyl-1-methyl)ethoxy]phenyl-N2-(3-aminosulfonyl-4-methyl)phenyl-5-fluoro-2,4-pyrimidinediamine] | 233 | 510 |  | 
23 | Cc1ccc(Nc2ncc(F)c(Nc3ccc(OCc4ccccn4)cc3)n2)cc1S(N)(=O)=O [Compound I-160, N2-(3-Aminosulfonyl-4-methylphenyl)-5-fluoro-N4-[4-(2-pyridinyl)methyleneoxyphenyl]-2,4-pyrimidinediamine] | 130 | 248 |  | 
24 | NS(=O)(=O)c1ccc(Nc2ncc(F)c(Nc3ccc(OCc4ccccn4)cc3)n2)cc1 [Compound I-163, N2-(4-Aminosulfonylphenyl)-5-fluoro-N4-[4-(2-pyridinyl)methyleneoxyphenyl]-2,4-pyrimidinediamine] | 177 | 439 |  | 
25 | CCN(CC)CCNS(=O)(=O)c1ccc(Nc2ncc(F)c(Nc3ccc(OCc4ccccn4)cc3)n2)cc1 [Compound I-165, N2-[4-(2-N,N-Diethylaminoethyl)aminosulfonylphenyl)-5-fluoro-N4-[4-(2-pyridinyl)methyleneoxyphenyl]-2,4-pyrimidinediamine] | 245 | 446 |  | 
26 | CNS(=O)(=O)c1cc(Nc2ncc(F)c(Nc3ccc(-c4ccccn4)c(OCF)c3)n2)ccc1C [Compound I-173, 5-Fluoro-N2-[3-N-(methyl)aminosulfonyl-4-methylphenyl]-N4-[4-(2-pyridinyl)-3-fluoromethyleneoxyphenyl]-2,4-pyrimidinediamine] | 115 | 907 |  | 
27 | Cc1cnc(Nc2cccc(S(N)(=O)=O)c2)nc1Nc1ccc(OCc2ccccn2)cc1 [Compound I-179, N2-(3-Aminosulfonylphenyl)-5-methyl-N4-[4-(2-pyridinyl)methyleneoxyphenyl]-2,4-pyrimidinediamine] | 24.3 | 11.8 |  | 
28 | CNS(=O)(=O)c1cc(Nc2ncc(C)c(Nc3ccc(OCc4ccccn4)cc3)n2)ccc1C [Compound I-180, 5-Methyl-N2-[3-(N-methylaminosulfony)-4-methylphenyl]-N4-[4-(2-pyridinyl)methyleneoxyphenyl]-2,4-pyrimidinediamine] | 62.4 | 28.7 |  | 
